{"source": "patent US9156828B2", "about": "“Tricyclic amidine derivatives as HIV attachment inhibitors” (priority 2012, dated 2015)", "system": "HIV-1 LAI envelope single-round infectious reporter virus", "experiment": "Single-round infectious HIV-1 LAI luciferase reporter virus infection of MT2 cells", "assay_type": "cell-based", "details": "Human immunodeficiency virus 1, MT2, 72 h", "description": "Virus Production— • Human embryonic Kidney cell line, 293T (HEK 293T), was propagated in Dulbecco's Modified Eagle Medium (Invitrogen, Carlsbad, Calif.) containing 10% fetal bovine serum (FBS, Sigma, St. Louis, Mo.). The human T-cell leukemia cell MT2 (AIDS Research and Reference Reagent Program, Cat. 237) was propagated in RPMI 1640 (Invitrogen, Carlsbad, Calif.) containing 10% fetal bovine serum (FBS, Hyclone, Logan, Utah)\nVirus Infection— • Single-round infectious reporter virus was produced by co-transfecting HEK 293T cells with plasmide expressing the HIV-1 LAI envelope along with a plasmid containing an HIV-1 LAI proviral cDNA with the envelope gene replaced by a firefly luciferase reporter gene (Chen et al., Ref 41). Transfections were performed using lipofectAMINE PLUS reagent as described by the manufacturer (Invitrogen, Carlsbad, Calif.). Experimental Procedure • 1. MT2 cells were plated in black, 384 well plates at a cell density of 5×10^3 cells per well in […] RPMI 1640 containing 10% FBS. • 2. Compound (diluted in dimethylsulfoxide and growth medium) was added to cells at 12.5 μl/well, so that the final assay concentration would be […]. • 3. 12.5 μl of single-round infectious reporter virus in Dulbecco's Modified Eagle Medium was added to the plated cells and compound at an approximate multiplicity of infection (MOI) of 0.01, resulting in a final volume of 50 μl per well. • 4. Virus-infected cells were incubated at 37 degrees Celsius in a CO2 incubator and harvested 72 h after infection. • 5. Viral infection was monitored by measuring luciferase expression in the infected cells using a luciferase reporter gene assay kit (Steady-Glo, Promega, Madison, Wis.) as described by the manufacturer. Luciferase activity was then quantified by measuring luminescence using an EnVision Multilabel Plate Readers (PerkinElmer, Waltham, Mass.). • 6. The percent inhibition for each compound was calculated by quantifying the level of luciferase expression in cells infected in the presence of each compound as a percentage of that observed for cells infected in the absence of compound and subtracting such a determined value from 100. • 7. An EC50 provides a method for comparing the antiviral potency of the compounds herein. The effective concentration for fifty percent inhibition (EC50) was calculated with the Microsoft Excel Xlfit curve fitting software. For each compound, curves were generated from percent inhibition calculated at 10 different concentrations by using a four parameter logistic model (model 205). Table 1 is the key for the data in Table 2.", "key": {"[1]": {"details": "read-out: EC50 Group from Table 1"}}, "note": "Where two headings read alike, the source gives them in different places."}
{"smiles": "O=C(C(=O)N1CCN(C2=Nc3ccccc3Oc3ccc(Cl)cc32)CC1)c1c[nH]c2ccccc12", "note": "[Compound 1001]", "values": [{"measurement": "EC50", "value": 706, "unit": "nM"}, {"measurement": "EC50", "setting": "[1]", "value": "> 500", "unit": "nM"}]}
{"smiles": "O=C(C(=O)N1CCN(C2=Nc3cc(Cl)ccc3Nc3ccccc32)CC1)c1c[nH]c2ccccc12", "note": "[Compound 1002]", "values": [{"measurement": "EC50", "setting": "[1]", "value": "> 500", "unit": "nM"}]}
{"smiles": "COc1cnc(-n2cncn2)c2[nH]cc(C(=O)C(=O)N3CCN(C4=Nc5ccccc5Oc5ccc(Cl)cc54)CC3)c12", "note": "[Compound 1003]", "values": [{"measurement": "EC50", "setting": "[1]", "value": "< 500", "unit": "nM"}]}
{"smiles": "O=C(C(=O)N1CCN(C2=Nc3ccccc3Oc3ccc(Cl)cc32)CC1)c1c[nH]c2c(Br)ccc(F)c12", "note": "[Compound 1004]", "values": [{"measurement": "EC50", "setting": "[1]", "value": "> 500", "unit": "nM"}]}
{"smiles": "COc1cnc(-n2cnc(C)n2)c2[nH]cc(C(=O)C(=O)N3CCN(C4=Nc5ccccc5Oc5ccc(Cl)cc54)CC3)c12", "note": "[Compound 1005]", "values": [{"measurement": "EC50", "value": 1.83, "unit": "nM"}, {"measurement": "EC50", "setting": "[1]", "value": "< 500", "unit": "nM"}]}
{"smiles": "COc1cnc(-n2cnc(C)n2)c2[nH]cc(C(=O)C(=O)N3CCN(C4=Nc5cc(Cl)ccc5Nc5ccccc54)CC3)c12", "note": "[Compound 1006]", "values": [{"measurement": "EC50", "setting": "[1]", "value": "< 500", "unit": "nM"}]}
